Assay results as given in PMC11539229 (Antimicrobial Agents and Chemotherapy, 2024).
In brackets after ≈: the same amount, converted by molar mass. Where two headings read alike, the source gives them in different places.

Legend:
[1] = mouse, in vivo
From the text: (§1) The calculated exposures at EDmax for GSK138 and GSK693 were obtained using the intravenous mouse PK profiles fitting to a bicompartmental model to obtain those parameters to simulate the oral whole blood exposures at EDmax. Additionally, a monocompartmental model was used to fit the experimental oral pharmacokinetic studies in non-infected mouse together with measured plasma concentrations obtained from the sparse sampling in the experiment 2 in infected mice. Parameters obtained from this fitting were used to simulate the profile after GSK693 administration at 100, 200, and 300 mg/kg in the combination study and to calculate the associated exposures (see Table 2).

M. tuberculosis H37Rv = format: in vivo, BALB/c mice; details: for additional reduction of lung CFU counts on addition to RZ: vs RZ; for reduction of lung CFU counts: monotherapy 300 mg/kg; for effect of addition to BPaL on bactericidal activity: experiment 5
[2] = Sparse plasma sampling in infected mice of the combination study (experiment 2); format: in vivo, mouse; details: for Plasma AUC0–24 h: monocompartmental model, combination study; for Blood AUC0–24 h: plasma value transformed with blood/plasma ratio 1.79
From the text: as §1
Tail vein blood was collected at the indicated time points. Briefly, an incision was made in the lateral tail vein. Blood (20–50 µL) was collected in BD Microtainer PST lithium heparin tubes from each mouse. The tubes were kept on ice before being centrifuged at 8,000 rpm for 5 min. The supernatant plasma (15–30 µL) was transferred to labeled microcentrifuge tubes, frozen, and stored at −80°C and then shipped on dry ice to GSK for further analysis.
Ten microliters of plasma or blood samples thawed at ambient temperature was mixed with 200 µL of acetonitrile (ACN):MeOH (80:20). After this protein precipitation step, samples were filtered using a 0.45-µm filter plate [Multiscreen Solvinert 0.45-μm polytetrafluoroethylene (PTFE), Millipore] and then filtered using a 0.2-µm filter [AcroPrep Advance 96 Filter Plate 350 µL, 0.2-µm polytetrafluoroethylene (PTFE)] to ensure sterilization prior to LC-MS analysis.

[3] = tested on: drug-susceptible, MDR and XDR M.tb clinical isolates; test: microbe, parasite or virus in culture; format: cell-based, M. tuberculosis; details: drug-susceptible, MDR and XDR clinical isolates
[4] = mouse, in vivo, 10 mg/kg; cited from earlier work

**Q.** What does the source list for `Cc1csc([C@](C)(O)c2nnc(Nc3ccn(Cc4csc(C)n4)n3)s2)n1` [GSK693]?
**A.** exposure needed to achieve the maximum effect in monotherapy in the acute infection model [1]: 110,200 ng·h/mL; additional reduction of lung CFU counts on addition to RZ (M. tuberculosis H37Rv; experiment 1, 300 mg/kg, week 8): 1.44 log; additive effect when combined with sutezolid, linezolid, or pretomanid (lung CFU) (M. tuberculosis H37Rv; experiment 1, GSK693 300 mg/kg): No additive effect; reduction of lung CFU counts (M. tuberculosis H37Rv; experiment 1, 4 weeks of treatment): 1.34 log10; reduction of lung CFU counts (M. tuberculosis H37Rv; experiment 1, 8 weeks of treatment): 2.33 log10; additional reduction of lung CFU counts on addition to RZ (M. tuberculosis H37Rv; experiment 2, 100 mg/kg, 8 weeks): 1.17 log; additional reduction of lung CFU counts on addition to RZ (M. tuberculosis H37Rv; experiment 2, 200 mg/kg, 8 weeks): 1.28 log; additional reduction of lung CFU counts on addition to RZ (M. tuberculosis H37Rv; experiment 2, 300 mg/kg, 8 weeks): 0.76 log; activity of the combination with RZ vs RZ alone or RZ with isoniazid (M. tuberculosis H37Rv; mouse, in vivo): significantly more active; effect on the activity of the RZ combination (M. tuberculosis H37Rv; mouse, in vivo): significantly enhanced; efficacy in combination with pretomanid and pyrazinamide compared with moxifloxacin (M. tuberculosis H37Rv; mouse, in vivo, 300 mg/kg): nor was it as effective as moxifloxacin; Plasma AUC0–24 h ([2]; 100 mg/kg): 12,867 ng·h/mL; Blood AUC0–24 h ([2]; 100 mg/kg): 23,032 ng·h/mL; Plasma AUC0–24 h ([2]; 200 mg/kg): 27,337 ng·h/mL; Blood AUC0–24 h ([2]; 200 mg/kg): 48,933 ng·h/mL; Plasma AUC0–24 h ([2]; 300 mg/kg): 64,866 ng·h/mL; Blood AUC0–24 h ([2]; 300 mg/kg): 116,110 ng·h/mL; MIC90 [3]: 1.87 µM (≈ 0.785 µg/mL)

**Q.** With `NNC(=O)c1ccncc1` [isoniazid, reference compound] as the molecule, how does the “effect of addition to BPaL on bactericidal activity” value (M. tuberculosis H37Rv; 4 weeks of treatment) read?
**A.** significantly increased the bactericidal activity

**Q.** What about the “effect on the activity of the RZ combination” value (M. tuberculosis H37Rv; mouse, in vivo) of the same molecule?
**A.** did not enhance the activity

**Q.** For `COc1c(N2C[C@@H]3CCCN[C@@H]3C2)c(F)cc2c(=O)c(C(=O)O)cn(C3CC3)c12` [moxifloxacin, reference compound], which “effect of addition to BPaL on bactericidal activity” value (M. tuberculosis H37Rv; 4 weeks of treatment) is on record?
**A.** trend toward enhanced activity

**Q.** What does the source list for `CO[C@H]1/C=C/O[C@@]2(C)Oc3c(C)c(O)c4c(O)c(c(/C=N/N5CCN(C)CC5)c(O)c4c3C2=O)NC(=O)/C(C)=C\C=C\[C@H](C)[C@H](O)[C@@H](C)[C@@H](O)[C@@H](C)[C@H](OC(C)=O)[C@@H]1C` [rifampicin, reference compound]?
**A.** AUC0–24 h [4]: 87,200–142,100 ng·h/mL; AUC(0-t) ([2]; mouse, plasma, rifampicin co-administered with pyrazinamide, experiment 2, read-out: Plasma AUC0–24 h): 68500 ng·h/mL
